Measurements: patent US20260014232A1, “Pharmaceutical Composition of GLP-1 and GIP Receptor Dual Agonist and Use Thereof” (Jiangsu Hengrui Pharmaceuticals Co., Ltd., priority 2021, published 2026)
Like-named read-outs stand apart in the source and are kept apart here. Starred links: 1 amine or outer side, 2 acyl side, 3 side chain; linkers in the order of their positions; H or OH if unused. Non-standard residues stand in square brackets, D forms with d. Residues, ends and D or L forms follow the SMILES beside them. Groups on a side chain read outwards from the residue. No end group written: not given here. *: point of attachment. C20 diacid = O=C(O)CCCCCCCCCCCCCCCCCCC(=O)*; Arachidoyl = CCCCCCCCCCCCCCCCCCCC(=O)*; γGlu = O=C(O)[C@H](CCC(=O)[*:2])N[*:1]; AEEA = NCCOCCOCC(=O)O; Aib = CC(C)(N)C(=O)O

Assays:
[1] = Blood glucose in normal mice after single subcutaneous administration and intraperitoneal glucose; assay type: in vivo, C57BL/6 mice; settings: for Blood glucose: glucose i.p. 18 h later, mean ± SD
Experimental: 18 h later, a glucose solution at a concentration of 0.2 g/mL was intraperitoneally injected. Blood glucose values were measured by collecting blood from the tail of mice at time points of 0 min, 15 min, 30 min, 60 min, and 120 min according to the experimental design. The specific procedures were as follows: the mouse was physically immobilized with the tail exposed, a little part was cut off at the tail end, then the tail was squeezed to bleed, and blood glucose was determined using a Roche active glucometer after the 1st drop of blood was discarded. The area under the blood glucose curve (AUC) was calculated from the results of all time points.

[2] = Body weight of diet-induced-obesity mice after subcutaneous administration; assay type: in vivo, C57BL/6 mice; settings: induced-obesity mice, 10 nmol/kg
Experimental: High-fat food-induced-obesity male C57BL/6 mice (weighing 35-55 g, aged 10-12 weeks, purchased from Shanghai Jiesijie Laboratory Animal Co., Ltd.) were tested. […] According to the experimental design, the body weight of each mouse was measured and recorded on day 0, day 3, day 6, and so on to day 27, the average body weight of each group of mice was calculated, and body weight change curves were plotted by taking the body weight on the first day as the standard. At the end, the fat and other visceral organs of each part of the mice were taken out and weighed, and the viscera/brain ratio for fat in each part of each mouse was calculated. The effect of the drug on the fat was determined by comparing the change in the viscera/brain ratio for fat of different parts of each group of mice.

[3] = Stability of compounds in human plasma (LC-MS); assay type: in vitro ADME
Experimental: 5 μL of each of samples at concentrations of 20 ng/ml, 50 ng/ml, 100 ng/ml, 200 ng/ml, 500 ng/mL, 1000 ng/mL, 2000 ng/mL, 5000 ng/mL, and 10000 ng/mL was added to 45 μL of human plasma. The content of the compounds in the samples was determined by the LC-MS method and a standard curve was formed. 5 μL of a 1 mg/mL polypeptide solution was added to 45 μL of human plasma. […] With the content at 0 min as the standard (100%), the relative content of the retained compounds in the samples at other time points was calculated.

[4] = target: human glucose-dependent insulinotropic polypeptide receptor (GIPR) (human) (UniProt P48546); assay: cell-based or functional assay
[5] = target: T1, human glucagon-like peptide-1 receptor (GLP-1R) (human, UniProt P43220 24-463); assay: cell-based or functional assay
[6] = target: T2, human glucose-dependent insulinotropic polypeptide receptor (GIPR) (human, UniProt P48546 22-466); assay: cell-based or functional assay
T2 sequence (looked up): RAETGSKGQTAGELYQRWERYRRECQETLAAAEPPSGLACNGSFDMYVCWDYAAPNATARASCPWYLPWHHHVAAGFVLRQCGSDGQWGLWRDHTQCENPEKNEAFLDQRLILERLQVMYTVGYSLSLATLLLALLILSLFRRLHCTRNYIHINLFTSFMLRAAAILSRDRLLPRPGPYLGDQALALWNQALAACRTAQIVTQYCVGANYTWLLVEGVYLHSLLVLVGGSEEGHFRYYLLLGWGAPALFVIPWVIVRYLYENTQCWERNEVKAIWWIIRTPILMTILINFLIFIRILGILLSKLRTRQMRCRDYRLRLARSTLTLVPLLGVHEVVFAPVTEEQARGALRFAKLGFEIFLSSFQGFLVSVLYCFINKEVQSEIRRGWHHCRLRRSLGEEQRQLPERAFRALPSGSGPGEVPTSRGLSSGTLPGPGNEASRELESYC

[7] = target: T1, human glucagon-like peptide-1 receptor …; assay: cell-based or functional assay; remark: listed apart in the source
[8] = target: T2, human glucose-dependent insulinotropic …; assay: cell-based or functional assay; remark: listed apart in the source

CC[C@H](C)[C@H](NC(=O)[C@H](CCCCN)NC(=O)[C@H](CC(=O)O)NC(=O)[C@H](CCCCNC(=O)COCCOCCNC(=O)COCCOCCNC(=O)CC[C@H](NC(=O)CCCCCCCCCCCCCCCCCCC(=O)O)C(=O)O)NC(=O)[C@H](Cc1ccc(O)cc1)NC(=O)[C@@H](NC(=O)[C@H](CO)NC(=O)[C@H](Cc1ccc(O)cc1)NC(=O)[C@H](CC(=O)O)NC(=O)[C@H](CO)NC(=O)[C@@H](NC(=O)[C@H](Cc1ccccc1)NC(=O)[C@@H](NC(=O)CNC(=O)[C@H](CCC(=O)O)NC(=O)C(C)(C)NC(=O)[C@@H](N)Cc1ccc(O)cc1)[C@@H](C)O)[C@@H](C)O)[C@@H](C)CC)C(=O)N[C@@H](C)C(=O)N[C@@H](C)C(=O)N[C@@H](CCC(N)=O)C(=O)N[C@@H](CCC(=O)O)C(=O)N[C@@H](Cc1ccccc1)C(=O)N[C@H](C(=O)N[C@@H](CC(N)=O)C(=O)N[C@@H](Cc1c[nH]c2ccccc12)C(=O)N[C@@H](CC(C)C)C(=O)N[C@@H](CC(C)C)C(=O)N[C@@H](C)C(=O)NCC(=O)NCC(=O)N1CCC[C@H]1C(=O)N[C@@H](CO)C(=O)N[C@@H](CO)C(=O)NCC(=O)N[C@@H](C)C(=O)N1CCC[C@H]1C(=O)N1CCC[C@H]1C(=O)N1CCC[C@H]1C(=O)N[C@@H](CO)C(N)=O)C(C)C [Compound 7#] (H-Y[Aib]EGTFTSDYSIYK([AEEA-AEEA-γGlu-C20 diacid])DKIAAQEFVNWLLAGGPSSGAPPPS-NH2)
area under the blood glucose curve reduced compared with placebo ([1]; 10 nmol/kg): more than 60%
AUC (area under the blood glucose curve) ([1]; 10 nmol/kg s.c., 0-120 min): 10.7 ± 1.8 mmol·h/L
Blood glucose ([1]; 10 nmol/kg s.c., 0 min): 4.4 ± 0.8 mmol/L
Blood glucose ([1]; 10 nmol/kg s.c., 15 min): 6.7 ± 0.8 mmol/L
Blood glucose ([1]; 10 nmol/kg s.c., 30 min): 6.2 ± 1.3 mmol/L
Blood glucose ([1]; 10 nmol/kg s.c., 60 min): 5.7 ± 1.2 mmol/L
Blood glucose ([1]; 10 nmol/kg s.c., 120 min): 3.8 ± 1.1 mmol/L
Body weight change ([2]; Day 1, mean ± SD): 0%
Body weight change ([2]; Day 4, mean ± SD): −11.0 ± 1.0%
Body weight change ([2]; Day 7, mean ± SD): −17.6 ± 2.6%
Body weight change ([2]; Day 10, mean ± SD): −22.6 ± 5.9%
Body weight change ([2]; Day 13, mean ± SD): −22.3 ± 6.3%
Body weight change ([2]; Day 16, mean ± SD): −22.7 ± 6.9%
Body weight change ([2]; Day 19, mean ± SD): −25.9 ± 6.2%
Body weight change ([2]; Day 22, mean ± SD): −23.9 ± 5.6%
Body weight change ([2]; Day 25, mean ± SD): −23.9 ± 5.6%
Body weight change ([2]; Day 28, mean ± SD): −25.5 ± 5.3%
Relative content of compounds retained in plasma ([3]; 0 min): 100.00%
Relative content of compounds retained in plasma ([3]; 240 min): 102.15%

Natural GIP (from UniProt P09681 52-93) (ligand)
Activity against human GIPR (EC50 nM); cAMP HTRF, CHO-K1 cells overexpressing hGIP receptor [4]: 0.006 nM

Semaglutide (peptide)
Activity against human GIPR (EC50 nM); cAMP HTRF, CHO-K1 cells overexpressing hGIP receptor [4]: > 10 nM

B1: compound 16# (peptide)
peptide: Y[Aib]EGTFTSDYSIYK([AEEA-AEEA-γGlu-Arachidoyl])EKIAAQEFINWLLAGGPSSGAPPPS-NH2
modifications: N-terminus assumed
SMILES: CCCCCCCCCCCCCCCCCCCC(=O)N[C@@H](CCC(=O)NCCOCCOCC(=O)NCCOCCOCC(=O)NCCCC[C@H](NC(=O)[C@H](Cc1ccc(O)cc1)NC(=O)[C@@H](NC(=O)[C@H](CO)NC(=O)[C@H](Cc1ccc(O)cc1)NC(=O)[C@H](CC(=O)O)NC(=O)[C@H](CO)NC(=O)[C@@H](NC(=O)[C@H](Cc1ccccc1)NC(=O)[C@@H](NC(=O)CNC(=O)[C@H](CCC(=O)O)NC(=O)C(C)(C)NC(=O)[C@@H](N)Cc1ccc(O)cc1)[C@@H](C)O)[C@@H](C)O)[C@@H](C)CC)C(=O)N[C@@H](CCC(=O)O)C(=O)N[C@@H](CCCCN)C(=O)N[C@H](C(=O)N[C@@H](C)C(=O)N[C@@H](C)C(=O)N[C@@H](CCC(N)=O)C(=O)N[C@@H](CCC(=O)O)C(=O)N[C@@H](Cc1ccccc1)C(=O)N[C@H](C(=O)N[C@@H](CC(N)=O)C(=O)N[C@@H](Cc1c[nH]c2ccccc12)C(=O)N[C@@H](CC(C)C)C(=O)N[C@@H](CC(C)C)C(=O)N[C@@H](C)C(=O)NCC(=O)NCC(=O)N1CCC[C@H]1C(=O)N[C@@H](CO)C(=O)N[C@@H](CO)C(=O)NCC(=O)N[C@@H](C)C(=O)N1CCC[C@H]1C(=O)N1CCC[C@H]1C(=O)N1CCC[C@H]1C(=O)N[C@@H](CO)C(N)=O)[C@@H](C)CC)[C@@H](C)CC)C(=O)O
Activity against human GLP-1R (EC50 nM); cAMP HTRF, CHO-K1/GLP-1R/CRE-luc cells [5]: 0.029 nM
Activity against human GIPR (EC50 nM); cAMP HTRF, CHO-K1 cells overexpressing hGIP receptor [6]: 0.095 nM

B2: compound 17# (peptide)
peptide: Y[Aib]EGTFTSDYSIYK([AEEA-AEEA-γGlu-Arachidoyl])ERIAAQEFVNWLLAGGPSSGAPPPS-NH2
modifications: N-terminus assumed
SMILES: CCCCCCCCCCCCCCCCCCCC(=O)N[C@@H](CCC(=O)NCCOCCOCC(=O)NCCOCCOCC(=O)NCCCC[C@H](NC(=O)[C@H](Cc1ccc(O)cc1)NC(=O)[C@@H](NC(=O)[C@H](CO)NC(=O)[C@H](Cc1ccc(O)cc1)NC(=O)[C@H](CC(=O)O)NC(=O)[C@H](CO)NC(=O)[C@@H](NC(=O)[C@H](Cc1ccccc1)NC(=O)[C@@H](NC(=O)CNC(=O)[C@H](CCC(=O)O)NC(=O)C(C)(C)NC(=O)[C@@H](N)Cc1ccc(O)cc1)[C@@H](C)O)[C@@H](C)O)[C@@H](C)CC)C(=O)N[C@@H](CCC(=O)O)C(=O)N[C@@H](CCCNC(=N)N)C(=O)N[C@H](C(=O)N[C@@H](C)C(=O)N[C@@H](C)C(=O)N[C@@H](CCC(N)=O)C(=O)N[C@@H](CCC(=O)O)C(=O)N[C@@H](Cc1ccccc1)C(=O)N[C@H](C(=O)N[C@@H](CC(N)=O)C(=O)N[C@@H](Cc1c[nH]c2ccccc12)C(=O)N[C@@H](CC(C)C)C(=O)N[C@@H](CC(C)C)C(=O)N[C@@H](C)C(=O)NCC(=O)NCC(=O)N1CCC[C@H]1C(=O)N[C@@H](CO)C(=O)N[C@@H](CO)C(=O)NCC(=O)N[C@@H](C)C(=O)N1CCC[C@H]1C(=O)N1CCC[C@H]1C(=O)N1CCC[C@H]1C(=O)N[C@@H](CO)C(N)=O)C(C)C)[C@@H](C)CC)C(=O)O
Activity against human GLP-1R (EC50 nM); cAMP HTRF, CHO-K1/GLP-1R/CRE-luc cells [5]: 0.022 nM
Activity against human GIPR (EC50 nM); cAMP HTRF, CHO-K1 cells overexpressing hGIP receptor [6]: 0.11 nM

Y[Aib]EGTFTSDYSIYK([AEEA-AEEA-γGlu-Arachidoyl])EKIAAQEFVNWLLAGGPSSGAPPPS-NH2 [compound 18#]
Activity against human GLP-1R (EC50 nM); cAMP HTRF, CHO-K1/GLP-1R/CRE-luc cells [5]: 0.013 nM
Activity against human GIPR (EC50 nM); cAMP HTRF, CHO-K1 cells overexpressing hGIP receptor [6]: 0.06 nM

Y[Aib]EGTFTSDYSIYK([AEEA-AEEA-γGlu-Arachidoyl])DKIAAQEFVNWLLAGGPSSGAPPPS-NH2 [compound 7#]
Activity against human GLP-1R (EC50 nM); cAMP HTRF, CHO-K1/GLP-1R/CRE-luc cells [7]: 0.021 nM
Activity against human GIPR (EC50 nM); cAMP HTRF, CHO-K1 cells overexpressing hGIP receptor [8]: 0.11 nM
